The source of these data is patent publication US5428059A, “Benzopyran derivatives and an anti-allergic agent possessing the same as the active ingredient” (Dainippon Ink & Chemicals, Inc., priority 1991, dated 1995).

In series [1] the test system is Hartley-type male guinea pigs. The series is described as follows: Guinea Pig Homogeneous Skin Passive Anaphylaxis Assay (PCA reaction). The series is classed as in vivo, guinea pig (Hartley-type). The note with it: for inhibition in vivo at 10 mg/kg: 10 mg/kg oral. A digest of the protocol: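 Male Hartley guinea pigs (250~300 g) given intradermal back injections of 120-fold-diluted anti-OVA serum; 48 h later test substance dosed orally at 10 mg/kg, then challenged i.v. with OVA plus Evans Blue. Dye-spot area (long × short diameter, mm^2) measured at 30 min; inhibition % calculated against solvent control.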

A short description of series [2]: Mouse Acute Toxicity Assay (oral, 7 days observation). Conditions: in vivo, ICR-type male mice, single forced oral administration 1000 and 2000 mg/kg, estimated from survival ratio. Here is the method: Mouse Acute Toxicity Assay
The present Example was carried out in order to confirm the safety of the novel compound according to the present invention. In the following the assay method used will be explained.
Assay method: After ICR-type male mice (body weight=20~25 g) were fasted for 16 hours, each substance to be tested was forcibly administered orally at 1000 mg/kg and 2000 mg/kg to groups of five mice, using a esophageal sound. After administration, the mice were kept in cages for seven days, following which observations were made on the general conditions and existence of dead animals. From the survival ratio of the mice at the end of the observation, the lethal dose 50 (LD50) was estimated.
The results of the mouse acute toxicity assay are recorded in Tables 1 and 2.

For series [3] the following is noted: oral administration; cited from earlier work.
In the next series the test system is mice. Conditions: Tranilast, cited from earlier work.
[4] abbreviates: Cavia porcellus, 48 h after sensitization, read-out: Allergic reaction inhibitory index (%).

As for `CC(C)=CCC/C(C)=C/COc1c(O)c2cc(O)ccc2oc1=O` [Compound 269, 4,6-(dihydroxy)-3-(geranyloxy)-2H-1-benzopyran-2-one], the inhibition in vivo at 10 mg/kg in series [1] (setting [4]) amounted to 33%. The LD50 (in general, the dose at which mortality reaches 50%) at 168 h in series [2] was greater than 1000 mg/kg.
For `COc1c(O)c2cc(OC(C)=O)ccc2oc1=O` [Compound 270, 3-(methoxy)-4-hydroxy-6-(acetoxy)-2H-1-benzopyran-2-one] the same measures were 35% and greater than 2000 mg/kg.
For `CC(=O)Oc1ccc2oc(=O)c(OC/C=C(\C)CCC=C(C)C)c(O)c2c1` [Compound 271, 3-(geranyloxy)-4-hydroxy-6-(acetoxy)-2H-1-benzopyran-2-one] the same measures were 33% and greater than 1000 mg/kg.
As to `CCCCCCCCCCOc1ccc2oc(=O)c(OC(C)=O)c(O)c2c1` [Compound 279, 3-(acetoxy)-4-(hydroxy)-6-(decyloxy)-2H-1-benzopyran-2-one], in series [1] (setting [4]), the inhibition in vivo at 10 mg/kg came out at 30%.
`CC(C)=CCC/C(C)=C/COc1ccc2oc(=O)c(O)c(O)c2c1` [Compound 280, 3,4-(dihydroxy)-6-(geranyloxy)-2H-1-benzopyran-2-one]: in series [1] (setting [4]), the inhibition in vivo at 10 mg/kg came to 35%. Besides, the LD50 at 168 h in series [2] is greater than 1000 mg/kg.
Take `O=C(O)c1cc(=O)c2c(OCC(O)COc3cccc4oc(C(=O)O)cc(=O)c34)cccc2o1` [Disodium Cromoglicate]: in series [3], the “absorption into the living body” value is recorded as “difficult to absorb”.
With `COc1ccc(/C=C/C(=O)Nc2ccccc2C(=O)O)cc1OC` [Tranilast, reference compound], the inhibition in vivo at 100 mg/kg in series [1] (Cavia porcellus, positive control, 100 mg/kg oral, 48 h after sensitization, read-out: Allergic reaction inhibitory index (%)) was 52%. In addition, the “anti-allergic action, compounds of the invention (10 mg/kg) versus Tranilast (100 mg/kg)” value in series [1] (oral) was “approximately equal to or less than the anti-allergic action exhibited by the compounds of the present invention”. Moreover, the “acute toxic value (LD50)” value in the series on mice (background) was 680 to 780 mg/kg. Moreover, the LD50 in the series with mice (male mice) was 780 mg/kg.
